Source: patent US20250099420A1, “SMALL MOLECULE MODULATORS OF GPR139 COMPLEX” (University of Florida Research Foundation, Incorporated, priority 2022, published 2025)
pEC50: −log10 of the molar value. Like-named read-outs stand apart in the source and are kept apart here.

How the values were obtained:
GPR139 = target: T1, GPR139 (Homo sapiens, UniProt Q6DWJ6); test: GPR139 Agonist titration / agonist counterscreen assay (calcium detection, HEK-GPR139 cells); assay type: cell-based; set-up: expressed in transfected cells; host or cells: HEK Aequorin cells, Maxcyte transient transfection; details: GPR139 Agonist Activity; for Averaged Max % Response (±St. Dev.): activity relative to known control; for pEC50: read-out: EC50
T1 sequence (Q6DWJ6 1-353): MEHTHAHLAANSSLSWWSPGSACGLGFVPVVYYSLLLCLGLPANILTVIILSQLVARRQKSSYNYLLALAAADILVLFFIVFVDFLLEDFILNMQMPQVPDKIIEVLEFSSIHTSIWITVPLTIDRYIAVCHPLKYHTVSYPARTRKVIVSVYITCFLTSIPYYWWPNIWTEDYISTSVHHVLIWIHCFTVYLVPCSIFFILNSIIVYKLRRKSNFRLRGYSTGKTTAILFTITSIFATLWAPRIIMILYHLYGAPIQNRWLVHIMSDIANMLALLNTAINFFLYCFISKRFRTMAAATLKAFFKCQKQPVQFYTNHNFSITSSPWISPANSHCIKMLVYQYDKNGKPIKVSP
Method: GPR activity was assessed using a calcium detection assay. […] Negative control samples were treated with DMSO. […] Intracellular calcium was measured using Calcium 5.

parental HEK cells = test: HEK parental Agonist Counterscreen Assay (non-transfected cells); assay type: cell-based; details: for Averaged Max % Response (±St. Dev.): activity relative to known control
Excerpt: The high control for the agonist counterscreen was Forskolin not acetylcholine.

[1] = values printed in E-notation without unit
[2] = Homo sapiens, HEK293, HEK Agonist Activity, parental non-transfected HEK cells
[3] = HEK Agonist Activity section of Table 4 (parental HEK counterscreen)
[4] = HEK Agonist Activity, parental non-transfected HEK cells
[5] = Homo sapiens, HEK293, HEK Agonist Activity section of Table 4 (parental HEK counterscreen)

Row | Averaged Max % Response (±St. Dev.) (GPR139) | Lipophilic Efficiency (logD) (GPR139; based on logD) | Lipophilic Efficiency (logP) (GPR139; based on logP) | Hill Slope (GPR139; fitted dose-response curve) | Efficiency Ligand (GPR139; ligand efficiency) | pEC50 (GPR139; [1]) | Lipophilic Efficiency (logD) (parental HEK cells; HEK Agonist Activity) | Lipophilic Efficiency (logP) (parental HEK cells; HEK Agonist Activity) | Lipophilic Efficiency (logD) (parental HEK cells; HEK Agonist Activity section) | Lipophilic Efficiency (logP) (parental HEK cells; HEK Agonist Activity section) | SMILES | Averaged Max % Response (±St. Dev.) (parental HEK cells; HEK Agonist Activity) | pEC50 (parental HEK cells; [2]) | pEC50 (parental HEK cells; [3]) | Averaged Max % Response (±St. Dev.) (parental HEK cells; HEK Agonist Activity section) | other results
1 | 114.27 ± 15.21% | 4.70 | 4.70 | 1.01 | 0.44 | 7.91 | 1.64 | 1.64 | – | – | Cc1cc(Cl)ccc1OCC(=O)NNC(=O)C1CC1c1ccccc1 (stereo not drawn) [SR-01000317486] | 3.86 ± 3.87% | < 4.85 | – | – | –
2 | 101.00 ± 9.27% | 3.98 | 3.97 | 0.53 | 0.50 | 6.80 | – | – | 2.03 | 2.02 | O=c1nc(SCc2ccccc2F)c2c([nH]1)CCC2 [SR-01000914970] | – | – | < 4.85 | −5.66 ± 4.95% | –
3 | 90.30 ± 31.36% | 5.98 | 5.98 | 0.72 | 0.36 | 7.44 | 3.39 | 3.39 | – | – | CCn1c(=O)n(CC(=O)NCC2COc3ccccc3O2)c(=O)c2ccccc21 (stereo not drawn) [SR-01000589950] | −9.62 ± 21.31% | < 4.85 | – | – | –
4 | 111.02 ± 13.88% | 4.73 | 4.73 | 0.52 | 0.38 | 7.77 | 1.80 | 1.80 | – | – | CCC1CCCCN1C(=O)CN1C(=O)NC(C)(c2ccc3ccccc3c2)C1=O (stereo not drawn) [SR-01000048417] | −4.34 ± 6.43% | – | – | – | pEC50 (parental HEK cells; [4]): < 4.84
5 | 120.85 ± 28.06% | 4.18 | 4.18 | 0.72 | 0.47 | – | 1.26 | 1.26 | – | – | Cc1ccc(CCNC(=O)Cn2cc3c(n2)CCCCC3)cc1 [SR-01000088477] | −0.30 ± 8.57% | < 4.85 | – | – | –
6 | 100.73 ± 15.83% | 4.65 | 4.65 | 0.96 | 0.36 | 6.86 | – | – | 2.60 | 2.60 | COc1ccc(CCNC(=O)CC(=O)NCCc2ccc(OC)cc2)cc1 [SR-01000034566] | – | – | < 4.82 | −4.69 ± 7.66% | –
7 | 81.20 ± 9.68% | – | – | – | – | – | – | – | 1.69 | 1.69 | CCOC(=O)C1CCN(C(=O)C2CC(Cc3cccc4ccccc34)=NO2)CC1 (stereo not drawn) [SR-01000185621] | – | – | – | −9.62 ± 7.28% | Efficiency Ligand (GPR139): 0.28; Hill Slope (GPR139): 0.84; Lipophilic Efficiency (logD) (GPR139): 2.73; Lipophilic Efficiency (logP) (GPR139): 2.73; pEC50 (GPR139; HEK-GPR139 cells): 5.89; pEC50 (parental HEK cells; [5]): < 4.85
8 | 81.04 ± 10.01% | – | – | – | – | – | – | – | 3.98 | 2.09 | COc1ccc2c(c1)C[C@H](C(=O)Nc1ccc(-c3cn[nH]c3)cc1OCCN1CCCC1)NC2.O=C(O)C(F)(F)F.O=C(O)C(F)(F)F.O=C(O)C(F)(F)F [SR-00000007044] | – | – | < 4.85 | 26.95 ± 5.80% | Efficiency Ligand (GPR139): 0.24; Hill Slope (GPR139): 1.19; Lipophilic Efficiency (logD) (GPR139): 5.00; Lipophilic Efficiency (logP) (GPR139): 3.11; pEC50 (GPR139; HEK-GPR139 cells): 5.85
9 | 81.24 ± 9.74% | 4.30 | 4.30 | 2.01 | 0.37 | 7.63 | 1.53 | 1.53 | – | – | COc1ccc(CCNC(=O)Nc2ccc3c(c2)CCCN3C(=O)C2CC2)cc1 [SR-01000923125] | 32.19 ± 4.93% | < 4.85 | – | – | –
10 | 100.76 ± 18.47% | 3.28 | 3.28 | 1.29 | 0.41 | 6.81 | – | – | 1.33 | 1.33 | O=C(Cn1cc2c(n1)CCCCC2)NCCCc1ccccc1 [SR-01000088420] | – | – | < 4.85 | 12.56 ± 5.54% | –
11 | 112.22 ± 29.96% | – | – | – | – | – | – | – | 2.23 | 2.23 | O=C(Cn1ncc2c1-c1ccccc1OC2)Nc1ccc(Cl)cc1 [SR-01000152099] | – | – | – | 29.06 ± 12.18% | Efficiency Ligand (GPR139): 0.36; Hill Slope (GPR139): 0.62; Lipophilic Efficiency (logD) (GPR139): 3.61; Lipophilic Efficiency (logP) (GPR139): 3.61; pEC50 (GPR139; HEK-GPR139 cells): 6.23; pEC50 (parental HEK cells; [5]): < 4.85
12 | 89.37 ± 8.48% | 4.16 | 4.16 | 0.51 | 0.38 | 7.08 | – | – | 1.93 | 1.93 | COc1ccc(NC(=O)Cn2ncc3c2-c2ccccc2OC3)cc1Cl [SR-01000135070] | – | – | < 4.85 | 7.87 ± 13.27% | –
13 | 97.44 ± 1.25% | 3.03 | 3.02 | 1.19 | 0.44 | 6.61 | – | – | 1.25 | 1.25 | Cc1ccccc1SCC(=O)NNC(=O)c1ccc(Br)s1 [SR-01000069352] | – | – | – | 11.25 ± 2.29% | pEC50 (parental HEK cells; [5]): < 4.84
14 | 69.12 ± 3.13% | – | – | – | – | – | – | – | 2.68 | 2.68 | CCCc1ccc(NC(=O)CCc2nc3c(c(=O)n2C)CCC3)cc1 [SR-01000017533] | – | – | – | −1.95 ± 4.81% | Efficiency Ligand (GPR139): 0.31; Hill Slope (GPR139): 1.55; Lipophilic Efficiency (logD) (GPR139): 3.33; Lipophilic Efficiency (logP) (GPR139): 3.33; pEC50 (parental HEK cells; [5]): < 4.85
15 | 113.46 ± 20.46% | 4.29 | 4.29 | 1.05 | 0.38 | 7.53 | 1.61 | 1.61 | – | – | CC1CCCC(NC(=O)CN2CCCN(Cc3ccc(F)cc3Cl)C2=O)C1C (stereo not drawn) [SR-01000146420] | 20.27 ± 3.59% | < 4.85 | – | – | –
16 | 86.57 ± 2.15% | – | – | – | – | – | – | – | 1.99 | 1.99 | Cc1ccc(CN2CC34C=CC(O3)C(C(=O)NCCC3=CCCCC3)C4C2=O)cc1 (stereo not drawn) [SR-01000550322] | – | – | < 4.87 | −6.25 ± 1.61% | Efficiency Ligand (GPR139): 0.27; Hill Slope (GPR139): 0.73; Lipophilic Efficiency (logD) (GPR139): 2.87; Lipophilic Efficiency (logP) (GPR139): 2.87; pEC50 (GPR139; HEK-GPR139 cells): 5.74
17 | 99.20 ± 4.08% | 4.23 | 4.23 | 0.78 | 0.48 | 6.88 | – | – | 2.20 | 2.20 | Cc1ccc(SCC(=O)NNC(=O)c2cccs2)cc1 [SR-01000286062] | – | – | < 4.85 | 8.31 ± 5.73% | –
18 | 126.32 ± 18.07% | 5.83 | 5.82 | – | 0.42 | – | 2.01 | 2.01 | – | – | CCCCn1c(C)c(N(CC)C(=O)C(C)(C)Oc2ccc(C)cc2)c(=O)[nH]c1=O [SR-01000071222] | 4.62 ± 5.04% | < 4.83 | – | – | –
19 | 112.57 ± 13.42% | 7.01 | 7.01 | 0.64 | 0.43 | 8.54 | 3.29 | 3.29 | – | – | CN(Cc1cccs1)C(=O)CN1C(=O)NC(C)(c2ccc3c(c2)OCO3)C1=O (stereo not drawn) [SR-01000068229] | −2.42 ± 7.08% | – | – | – | pEC50 (parental HEK cells; [4]): < 4.81
